Experimental data from US20200123115A1, “COMPOUNDS HAVING MULTIMODAL ACTIVITY AGAINST PAIN” (ESTEVE PHARMACEUTICALS, S.A., priority 2017, published 2020).
pKi: −log10 of the molar value.

Assays:
[1] = biological target: Human α2δ-1 subunit of Cav2.2 calcium channel (Homo sapiens, UniProt P54289); assay: Human α2δ-1 subunit of Cav2.2 calcium channel assay, [3H]-Gabapentin binding; details: human α2δ-1 enriched membranes, 15 nM [3H]-Gabapentin
Procedure: Human α2δ-1 Subunit of Cav2.2 Calcium Channel Assay
Human α2δ-1 enriched membranes (2.5 μg) were incubated with 15 nM of radiolabeled [3H]-Gabapentin in assay buffer containing Hepes-KOH 10 mM, pH 7.4. NSB (non specific binding) was measured by adding 10 μM pregabalin. After 60 min incubation at 27° C., binding reaction was terminated by filtering through Multiscreen GF/C (Millipore) presoaked in 0.5% polyethyleneimine in Vacuum Manifold Station, followed by 3 washes with ice-cold filtration buffer containing 50 mM Tris-HCl, pH 7.4. Filter plates were dried at 60° C. for 1 hour and 30 μL of scintillation cocktail were added to each well before radioactivity reading. Readings were performed in a Trilux 1450 Microbeta radioactive counter (Perkin Elmer).

[2] = biological target: Human norepinephrine transporter (NET) (Homo sapiens, UniProt P23975); assay: Binding assay to human norepinephrine transporter (NET), [3H]-Nisoxetin; details: human NET enriched membranes, 5 nM [3H]-Nisoxetin
Procedure: Binding Assay to Human Norepinephrine Transporter (NET).
Human norepinephrine transporter (NET) enriched membranes (5 μg) were incubated with 5 nM of radiolabeled [3H]-Nisoxetin in assay buffer containing 50 mM Tris-HCl, 120 mM NaCl, 5 mM KCl, pH 7.4.
NSB (non specific binding) was measured by adding 1 μM. After 60 min incubation at 4° C., binding reaction was terminated by filtering through Multiscreen GF/C (Millipore) presoaked in 0.5% polyethyleneimine in Vacuum Manifold Station, followed by 3 washes with ice-cold filtration buffer containing 50 mM Tris-HCl, 0.9% NaCl, pH 7.4.
Filter plates were dried at 60° C. for 1 hour and 30 μL of scintillation cocktail were added to each well before radioactivity reading.
Readings were performed in a Trilux 1450 Microbeta radioactive counter (Perkin Elmer).

Sequence of Human α2δ-1 subunit of Cav2.2 calcium channel (P54289 25-1103): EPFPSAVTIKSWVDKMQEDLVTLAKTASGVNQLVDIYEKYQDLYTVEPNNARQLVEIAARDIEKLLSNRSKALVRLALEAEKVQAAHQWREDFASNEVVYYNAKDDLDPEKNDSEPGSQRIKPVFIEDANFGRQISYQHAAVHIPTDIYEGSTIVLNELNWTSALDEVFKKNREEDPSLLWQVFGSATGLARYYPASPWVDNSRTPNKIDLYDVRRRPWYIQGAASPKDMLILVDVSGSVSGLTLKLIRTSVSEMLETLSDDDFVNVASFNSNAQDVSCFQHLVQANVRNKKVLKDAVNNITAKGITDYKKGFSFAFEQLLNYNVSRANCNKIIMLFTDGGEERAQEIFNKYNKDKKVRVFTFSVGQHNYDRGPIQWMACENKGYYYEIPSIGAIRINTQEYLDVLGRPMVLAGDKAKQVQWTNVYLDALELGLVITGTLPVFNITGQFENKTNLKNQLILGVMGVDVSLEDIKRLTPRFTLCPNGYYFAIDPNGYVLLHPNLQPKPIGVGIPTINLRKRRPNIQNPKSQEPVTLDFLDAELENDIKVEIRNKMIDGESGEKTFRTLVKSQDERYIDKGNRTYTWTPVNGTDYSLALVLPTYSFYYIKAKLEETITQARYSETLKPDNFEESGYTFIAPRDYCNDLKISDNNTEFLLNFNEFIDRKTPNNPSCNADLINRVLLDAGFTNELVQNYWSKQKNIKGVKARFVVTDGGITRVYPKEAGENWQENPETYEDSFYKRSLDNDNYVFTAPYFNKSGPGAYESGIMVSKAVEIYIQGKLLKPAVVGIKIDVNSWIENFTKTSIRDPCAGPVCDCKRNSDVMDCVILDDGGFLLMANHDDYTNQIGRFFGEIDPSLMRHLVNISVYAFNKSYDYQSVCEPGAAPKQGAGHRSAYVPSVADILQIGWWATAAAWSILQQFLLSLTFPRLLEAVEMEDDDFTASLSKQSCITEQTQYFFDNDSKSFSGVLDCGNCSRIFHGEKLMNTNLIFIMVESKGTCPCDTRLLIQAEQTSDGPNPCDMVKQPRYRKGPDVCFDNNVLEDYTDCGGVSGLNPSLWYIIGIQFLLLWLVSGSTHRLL
Sequence of Human norepinephrine transporter (NET) (P23975 whole entry): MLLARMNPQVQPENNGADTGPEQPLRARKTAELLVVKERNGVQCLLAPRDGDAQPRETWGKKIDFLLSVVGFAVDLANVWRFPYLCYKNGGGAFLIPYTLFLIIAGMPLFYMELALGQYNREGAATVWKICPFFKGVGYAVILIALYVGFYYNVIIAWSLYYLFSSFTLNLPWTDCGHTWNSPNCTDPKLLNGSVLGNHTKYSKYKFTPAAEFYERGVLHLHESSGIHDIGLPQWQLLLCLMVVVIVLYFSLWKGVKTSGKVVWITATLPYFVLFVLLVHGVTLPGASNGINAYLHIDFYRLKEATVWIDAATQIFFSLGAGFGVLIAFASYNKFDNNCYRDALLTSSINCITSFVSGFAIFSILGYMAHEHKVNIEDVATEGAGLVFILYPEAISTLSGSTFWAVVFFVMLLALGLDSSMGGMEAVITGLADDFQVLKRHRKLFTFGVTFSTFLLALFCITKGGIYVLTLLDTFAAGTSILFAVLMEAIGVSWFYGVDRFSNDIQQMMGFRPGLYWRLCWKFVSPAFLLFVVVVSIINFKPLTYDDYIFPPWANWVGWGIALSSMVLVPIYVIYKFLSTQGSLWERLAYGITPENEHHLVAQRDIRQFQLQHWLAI

Structure (SMILES)	pKi [1]	pKi [2]
CNCCC(Oc1cccc(-c2cnc(C)nc2)c1)c1cccs1 (centres unmarked) [Example 23, N-methyl-3-(3-(2-methylpyrimidin-5-yl)phenoxy)-3-(thiophen-2-yl)propan-1-amine]	5.30 to 6.30	≤ 6.00
CNCCC(Oc1cccc(-c2ccc(C)nn2)c1)c1ccccc1 (centres unmarked) [Example 3, N-methyl-3-(3-(6-methylpyridazin-3-yl)phenoxy)-3-phenylpropan-1-amine]	≤ 5.30	6.00 to 6.30
CNCCC(Oc1cccc(-c2cnc(OC)nc2)c1)c1cccs1 (centres unmarked) [Example 18, 3-(3-(2-methoxypyrimidin-5-yl)phenoxy)-N-methyl-3-(thiophen-2-yl)propan-1-amine]	5.30 to 6.30	≤ 6.00
CNCCC(Oc1cccc(-c2ccnc(C)c2)c1)c1cccs1 (centres unmarked) [Example 19, N-methyl-3-(3-(2-methylpyridin-4-yl)phenoxy)-3-(thiophen-2-yl)propan-1-amine]	> 6.30	6.30 to 7.00
CNCCC(Oc1cccc(-c2ccncn2)c1)c1ccccc1 (centres unmarked) [Example 4, N-methyl-3-phenyl-3-(3-(pyrimidin-4-yl)phenoxy)propan-1-amine]	5.30 to 6.30	6.00 to 6.30
CNCC[C@@H](Oc1cccc(-c2ccnc(N[C@@H]3CCNC3)n2)c1)c1ccccc1 [Example 33, 4-(3-((R)-3-(methylamino)-1-phenylpropoxy)phenyl)-N—((R)-pyrrolidin-3-yl)pyrimidin-2-amine]	5.30 to 6.30	≤ 6.00
CNCC[C@H](Oc1cccc(-c2ccnc(NC)n2)c1)c1ccccc1 [Example 30, (S)—N-methyl-4-(3-(3-(methylamino)-1-phenylpropoxy)phenyl)pyrimidin-2-amine]	≤ 5.30	> 7.00
CNCCC(Oc1cccc(-c2cc(C)nc(C)c2)c1)c1cccs1 (centres unmarked) [Example 26, 3-(3-(2,6-dimethylpyridin-4-yl)phenoxy)-N-methyl-3-(thiophen-2-yl)propan-1-amine]	5.30 to 6.30	6.30 to 7.00
CNCC[C@H](Oc1cccc(-c2ccnc(N)n2)c1)c1ccccc1 [Example 10, (S)-4-(3-(3-(methylamino)-1-phenylpropoxy)phenyl)pyrimidin-2-amine]	5.30 to 6.30	6.30 to 7.00
CNCCC(Oc1cccc(-c2ccnc(OC)n2)c1)c1ccccc1 (centres unmarked) [Example 1, 3-(3-(2-Methoxypyrimidin-4-yl)phenoxy)-N-methyl-3-phenylpropan-1-amine]	5.30 to 6.30	> 7.00

Continued, values first:

pKi [1]	pKi [2]	Structure (SMILES)
≤ 5.30	> 7.00	CNCC[C@H](Oc1cccc(-c2ccnc(N(C)C)n2)c1)c1ccccc1 [Example 35, (S)—N,N-dimethyl-4-(3-(3-(methylamino)-1-phenylpropoxy)phenyl)pyrimidin-2-amine]
5.30 to 6.30	≤ 6.00	CNCC[C@H](Oc1cccc(-c2ccnc(N3CCNCC3)n2)c1)c1ccccc1 [Example 28, (S)—N-Methyl-3-phenyl-3-(3-(2-(piperazin-1-yl)pyrimidin-4-yl)phenoxy)propan-1-amine]
5.30 to 6.30	6.30 to 7.00	CNCCC(Oc1cccc(-c2ccncc2)c1)c1cccs1 (centres unmarked) [Example 27, N-methyl-3-(3-(pyridin-4-yl)phenoxy)-3-(thiophen-2-yl)propan-1-amine]
5.30 to 6.30	6.00 to 6.30	CNCCC(Oc1cccc(-c2ccncc2C)c1)c1cccs1 (centres unmarked) [Example 24, N-methyl-3-(3-(3-methylpyridin-4-yl)phenoxy)-3-(thiophen-2-yl)propan-1-amine]
5.30 to 6.30	6.00 to 6.30	CNCC[C@H](Oc1cccc(-c2ccnc(N[C@@H]3CCNC3)n2)c1)c1ccccc1 [Example 36, 4-(3-((S)-3-(methylamino)-1-phenylpropoxy)phenyl)-N—((R)-pyrrolidin-3-yl)pyrimidin-2-amine]
5.30 to 6.30	> 7.00	CNCC[C@@H](Oc1cccc(-c2ccnc(SC)n2)c1)c1ccccc1 [Example 8, (R)—N-methyl-3-(3-(2-(methylthio)pyrimidin-4-yl)phenoxy)-3-phenylpropan-1-amine]
5.30 to 6.30	6.30 to 7.00	CNCC[C@H](Oc1cccc(-c2ccnc(C)n2)c1)c1ccccc1 [Example 6, (S)—N-methyl-3-(3-(2-methylpyrimidin-4-yl)phenoxy)-3-phenylpropan-1-amine]
5.30 to 6.30	6.00 to 6.30	CNCC[C@@H](Oc1cccc(-c2ccnc(C)n2)c1)c1ccccc1 [Example 7, (R)—N-methyl-3-(3-(2-methylpyrimidin-4-yl)phenoxy)-3-phenylpropan-1-amine]
5.30 to 6.30	≤ 6.00	CNCCNc1nccc(-c2cccc(O[C@@H](CCNC)c3ccccc3)c2)n1 [Example 32, (S)—N1-methyl-N2-(4-(3-(3-(methylamino)-1-phenylpropoxy)phenyl)pyrimidin-2-yl)ethane-1,2-diamine]
5.30 to 6.30	6.30 to 7.00	CNCCC(Oc1cccc(-c2ccnc(C)n2)c1)c1ccccc1 (centres unmarked) [Example 2, N-methyl-3-(3-(2-methylpyrimidin-4-yl)phenoxy)-3-phenylpropan-1-amine]
5.30 to 6.30	> 7.00	CNCC[C@H](Oc1cccc(-c2ccnc(SC)n2)c1)c1ccccc1 [Example 5, (S)—N-methyl-3-(3-(2-(methylthio)pyrimidin-4-yl)phenoxy)-3-phenylpropan-1-amine]
5.30 to 6.30	6.00 to 6.30	CNCC[C@@H](Oc1cccc(-c2ccnc(N[C@H]3CCNC3)n2)c1)c1ccccc1 [Example 34, 4-(3-((R)-3-(methylamino)-1-phenylpropoxy)phenyl)-N—((S)-pyrrolidin-3-yl)pyrimidin-2-amine]
5.30 to 6.30	6.30 to 7.00	CNCCC(Oc1cccc(-c2ccnc(C(F)(F)F)c2)c1)c1cccs1 (centres unmarked) [Example 22, N-methyl-3-(thiophen-2-yl)-3-(3-(2-(trifluoromethyl)pyridin-4-yl)phenoxy)propan-1-amine]
5.30 to 6.30	6.30 to 7.00	CCNc1nccc(-c2cccc(O[C@@H](CCNC)c3ccccc3)c2)n1 [Example 29, (S)—N-ethyl-4-(3-(3-(methylamino)-1-phenylpropoxy)phenyl)pyrimidin-2-amine]
5.30 to 6.30	≤ 6.00	CNCC[C@H](Oc1cccc(-c2ccnc(N3CCN(C)CC3)n2)c1)c1ccccc1 [Example 31, (S)—N-methyl-3-(3-(2-(4-methylpiperazin-1-yl)pyrimidin-4-yl)phenoxy)-3-phenylpropan-1-amine]
